Source: ChEMBL document CHEMBL5649166, “RIP3 induces apoptosis independent of pronecrotic kinase activity” (Mol Cell, 2014)

What was measured:
[1] = molecular target: Serine/threonine-protein kinase PLK1 (Homo sapiens) (UniProt P53350); experiment: Inhibition of human PLK1 using casein as substrate at 1 uM in presence of 32P-ATP by Hotspot assay relative to control; values are per cent of control
[2] = molecular target: Serine/threonine-protein kinase 10 (Homo sapiens) (UniProt O94804); experiment: Inhibition of human LOK/STK10 using RLGRDKYKTLRQIRQ as substrate at 1 uM in presence of 32P-ATP by Hotspot assay relative to control; values are per cent of control
Serine/threonine-protein kinase 10 (Homo sapiens), sequence (O94804 whole entry, looked up): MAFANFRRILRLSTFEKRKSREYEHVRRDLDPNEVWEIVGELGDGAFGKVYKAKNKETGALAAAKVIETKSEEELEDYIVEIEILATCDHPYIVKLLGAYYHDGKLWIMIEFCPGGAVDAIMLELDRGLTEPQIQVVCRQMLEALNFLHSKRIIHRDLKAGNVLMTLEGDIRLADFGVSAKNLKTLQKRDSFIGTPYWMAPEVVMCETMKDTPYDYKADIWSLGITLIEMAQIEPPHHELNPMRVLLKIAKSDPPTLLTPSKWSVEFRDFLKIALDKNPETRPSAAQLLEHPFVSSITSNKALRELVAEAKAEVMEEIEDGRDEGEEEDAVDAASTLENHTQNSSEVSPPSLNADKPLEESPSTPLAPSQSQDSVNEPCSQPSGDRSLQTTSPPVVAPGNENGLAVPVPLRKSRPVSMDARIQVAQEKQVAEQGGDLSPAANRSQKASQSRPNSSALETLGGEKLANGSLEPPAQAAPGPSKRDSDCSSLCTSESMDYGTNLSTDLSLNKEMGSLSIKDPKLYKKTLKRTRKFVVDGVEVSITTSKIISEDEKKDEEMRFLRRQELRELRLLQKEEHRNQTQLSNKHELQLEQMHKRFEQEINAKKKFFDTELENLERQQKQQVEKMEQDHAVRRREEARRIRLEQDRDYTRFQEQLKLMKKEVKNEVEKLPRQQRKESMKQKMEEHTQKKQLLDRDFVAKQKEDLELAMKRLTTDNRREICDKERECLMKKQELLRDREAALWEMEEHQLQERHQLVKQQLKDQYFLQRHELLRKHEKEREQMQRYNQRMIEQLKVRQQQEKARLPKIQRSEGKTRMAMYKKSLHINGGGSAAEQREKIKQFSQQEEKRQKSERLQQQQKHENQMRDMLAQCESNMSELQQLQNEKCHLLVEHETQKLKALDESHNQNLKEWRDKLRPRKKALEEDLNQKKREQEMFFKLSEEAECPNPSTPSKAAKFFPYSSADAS

[3] = molecular target: T1, Aurora kinase A (Homo sapiens) (UniProt O14965); experiment: Inhibition of human Aurora A using H-LRRASLG as substrate at 1 uM in presence of 32P-ATP by Hotspot assay relative to control; values are per cent of control
T1 sequence (whole entry): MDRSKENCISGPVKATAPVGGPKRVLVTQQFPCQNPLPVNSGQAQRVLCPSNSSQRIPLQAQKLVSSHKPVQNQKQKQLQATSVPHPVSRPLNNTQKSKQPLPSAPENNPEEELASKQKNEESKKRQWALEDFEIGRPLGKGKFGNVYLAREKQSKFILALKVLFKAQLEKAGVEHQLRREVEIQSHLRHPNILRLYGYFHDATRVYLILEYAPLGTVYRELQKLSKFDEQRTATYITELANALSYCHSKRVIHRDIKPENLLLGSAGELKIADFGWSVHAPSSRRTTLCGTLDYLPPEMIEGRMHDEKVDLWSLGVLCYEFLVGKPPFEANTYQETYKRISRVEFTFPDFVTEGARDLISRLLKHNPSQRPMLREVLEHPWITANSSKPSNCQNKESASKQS

[4] = molecular target: Dual specificity protein kinase CLK4 (Homo sapiens) (UniProt Q9HAZ1); experiment: Inhibition of human CLK4 using myelin basic protein as substrate at 1 uM in presence of 32P-ATP by Hotspot assay relative to control; values are per cent of control
Dual specificity protein kinase CLK4 (Homo sapiens), sequence (Q9HAZ1 whole entry, looked up): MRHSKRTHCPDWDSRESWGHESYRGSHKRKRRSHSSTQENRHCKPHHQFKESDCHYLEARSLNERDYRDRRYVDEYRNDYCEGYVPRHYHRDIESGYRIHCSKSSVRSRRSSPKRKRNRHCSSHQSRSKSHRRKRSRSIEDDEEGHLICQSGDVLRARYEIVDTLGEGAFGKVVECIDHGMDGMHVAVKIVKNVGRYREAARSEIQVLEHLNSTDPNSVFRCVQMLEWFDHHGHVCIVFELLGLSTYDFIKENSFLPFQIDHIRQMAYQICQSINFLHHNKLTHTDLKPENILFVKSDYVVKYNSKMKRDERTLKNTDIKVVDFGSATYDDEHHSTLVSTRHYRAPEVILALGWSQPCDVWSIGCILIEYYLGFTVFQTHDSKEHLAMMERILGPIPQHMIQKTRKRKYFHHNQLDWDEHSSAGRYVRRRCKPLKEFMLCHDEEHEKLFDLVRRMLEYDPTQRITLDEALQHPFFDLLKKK

[5] = molecular target: T2, Protein kinase C zeta type (Homo sapiens) (UniProt Q05513); experiment: Inhibition of human PKCzeta using ERMRPRKRQGSVRRRV as substrate at 1 uM in presence of 32P-ATP by Hotspot assay relative to control; values are per cent of control
T2 sequence (whole entry): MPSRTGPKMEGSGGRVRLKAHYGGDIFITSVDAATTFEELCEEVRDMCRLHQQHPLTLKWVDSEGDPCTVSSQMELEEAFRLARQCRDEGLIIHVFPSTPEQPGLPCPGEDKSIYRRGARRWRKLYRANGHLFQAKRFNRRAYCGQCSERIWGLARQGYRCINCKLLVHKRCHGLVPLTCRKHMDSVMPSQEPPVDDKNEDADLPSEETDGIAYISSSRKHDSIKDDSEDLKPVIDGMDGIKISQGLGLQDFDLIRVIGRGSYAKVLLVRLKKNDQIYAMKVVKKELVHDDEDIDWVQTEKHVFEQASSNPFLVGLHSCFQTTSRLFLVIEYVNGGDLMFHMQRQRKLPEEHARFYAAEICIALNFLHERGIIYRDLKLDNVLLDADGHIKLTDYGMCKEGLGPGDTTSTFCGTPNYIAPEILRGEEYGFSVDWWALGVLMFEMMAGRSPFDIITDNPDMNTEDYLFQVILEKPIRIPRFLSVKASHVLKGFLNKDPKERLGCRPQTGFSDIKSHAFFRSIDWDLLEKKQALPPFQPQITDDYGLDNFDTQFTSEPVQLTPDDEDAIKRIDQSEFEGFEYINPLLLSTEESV

[6] = molecular target: CDK9/cyclin T1 (Homo sapiens) (UniProt O60563+P50750); experiment: Inhibition of human CDK9/cyclin T1 using KTFCGTPEYLAPEVRREPRILSEEEQEMFRDFDYIADWC as substrate at 1 uM in presence of 32P-ATP by Hotspot assay relative to control; values are per cent of control
[7] = molecular target: T3, Cytoplasmic tyrosine-protein kinase BMX (Homo sapiens) (UniProt P51813); experiment: Inhibition of human BMX/ETK using poly[Glu:Tyr] (4:1) as substrate at 1 uM in presence of 32P-ATP by Hotspot assay relative to control; values are per cent of control
T3 sequence (whole entry): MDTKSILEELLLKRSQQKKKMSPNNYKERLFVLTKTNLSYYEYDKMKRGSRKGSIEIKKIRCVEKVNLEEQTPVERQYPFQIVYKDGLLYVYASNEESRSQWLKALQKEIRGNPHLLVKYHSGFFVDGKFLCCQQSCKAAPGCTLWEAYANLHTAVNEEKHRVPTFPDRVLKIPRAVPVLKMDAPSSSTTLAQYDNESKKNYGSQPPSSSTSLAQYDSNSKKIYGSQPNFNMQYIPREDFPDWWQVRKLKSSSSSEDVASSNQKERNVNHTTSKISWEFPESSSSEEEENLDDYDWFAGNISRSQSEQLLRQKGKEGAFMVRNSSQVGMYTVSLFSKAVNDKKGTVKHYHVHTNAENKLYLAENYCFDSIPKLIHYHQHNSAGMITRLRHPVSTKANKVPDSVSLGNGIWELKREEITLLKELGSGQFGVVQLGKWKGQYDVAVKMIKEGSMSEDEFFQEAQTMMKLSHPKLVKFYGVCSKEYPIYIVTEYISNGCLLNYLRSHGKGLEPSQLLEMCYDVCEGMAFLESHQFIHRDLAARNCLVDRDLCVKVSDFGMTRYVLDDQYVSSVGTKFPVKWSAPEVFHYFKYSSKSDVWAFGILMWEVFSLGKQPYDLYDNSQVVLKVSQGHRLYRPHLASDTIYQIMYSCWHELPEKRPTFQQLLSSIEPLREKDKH

[8] = molecular target: Vascular endothelial growth factor receptor 3 (Homo sapiens) (UniProt P35916); experiment: Inhibition of human FLT4/VEGFR3 using poly[Glu:Tyr] (4:1) as substrate at 1 uM in presence of 32P-ATP by Hotspot assay relative to control; values are per cent of control
Vascular endothelial growth factor receptor 3 (Homo sapiens), sequence (P35916 whole entry): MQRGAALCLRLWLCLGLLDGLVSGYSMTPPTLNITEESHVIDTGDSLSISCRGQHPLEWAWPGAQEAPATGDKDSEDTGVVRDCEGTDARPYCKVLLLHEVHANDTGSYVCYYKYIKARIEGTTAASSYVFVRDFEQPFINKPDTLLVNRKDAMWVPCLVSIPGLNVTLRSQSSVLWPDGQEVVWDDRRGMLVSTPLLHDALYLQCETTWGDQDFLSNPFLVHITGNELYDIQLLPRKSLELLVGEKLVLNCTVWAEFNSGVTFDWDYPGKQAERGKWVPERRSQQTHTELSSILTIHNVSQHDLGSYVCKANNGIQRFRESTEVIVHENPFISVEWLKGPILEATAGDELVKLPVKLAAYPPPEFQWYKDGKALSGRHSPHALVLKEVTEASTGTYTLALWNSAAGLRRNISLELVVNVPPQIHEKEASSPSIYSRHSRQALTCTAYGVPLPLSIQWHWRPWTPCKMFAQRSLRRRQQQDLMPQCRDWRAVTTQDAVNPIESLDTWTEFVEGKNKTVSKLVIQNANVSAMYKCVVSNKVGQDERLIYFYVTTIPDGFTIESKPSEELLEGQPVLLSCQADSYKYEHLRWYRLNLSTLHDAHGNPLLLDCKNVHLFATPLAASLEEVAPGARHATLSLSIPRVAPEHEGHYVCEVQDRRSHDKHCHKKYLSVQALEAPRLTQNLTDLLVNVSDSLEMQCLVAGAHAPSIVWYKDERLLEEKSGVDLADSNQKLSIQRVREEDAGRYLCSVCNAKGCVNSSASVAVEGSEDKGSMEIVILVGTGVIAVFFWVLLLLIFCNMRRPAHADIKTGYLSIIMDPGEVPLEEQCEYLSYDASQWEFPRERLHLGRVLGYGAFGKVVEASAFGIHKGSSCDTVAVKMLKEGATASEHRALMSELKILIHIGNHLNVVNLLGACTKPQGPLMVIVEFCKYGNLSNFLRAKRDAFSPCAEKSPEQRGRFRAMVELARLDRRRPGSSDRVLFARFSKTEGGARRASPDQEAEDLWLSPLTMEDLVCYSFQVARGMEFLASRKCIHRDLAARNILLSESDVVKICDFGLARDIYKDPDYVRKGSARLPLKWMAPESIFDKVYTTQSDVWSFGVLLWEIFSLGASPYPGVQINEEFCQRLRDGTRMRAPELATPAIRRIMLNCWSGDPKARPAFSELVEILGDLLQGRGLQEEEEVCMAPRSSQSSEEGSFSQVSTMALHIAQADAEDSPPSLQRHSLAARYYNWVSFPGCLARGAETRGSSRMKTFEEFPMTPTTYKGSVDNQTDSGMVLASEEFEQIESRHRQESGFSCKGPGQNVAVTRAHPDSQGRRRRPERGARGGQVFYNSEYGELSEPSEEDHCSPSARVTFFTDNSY

[9] = molecular target: Insulin receptor (Homo sapiens) (UniProt P06213); experiment: Inhibition of human IR using poly[Glu:Tyr] (4:1) as substrate at 1 uM in presence of 32P-ATP by Hotspot assay relative to control; values are per cent of control
Insulin receptor (Homo sapiens), sequence (P06213 28-758 limits assumed): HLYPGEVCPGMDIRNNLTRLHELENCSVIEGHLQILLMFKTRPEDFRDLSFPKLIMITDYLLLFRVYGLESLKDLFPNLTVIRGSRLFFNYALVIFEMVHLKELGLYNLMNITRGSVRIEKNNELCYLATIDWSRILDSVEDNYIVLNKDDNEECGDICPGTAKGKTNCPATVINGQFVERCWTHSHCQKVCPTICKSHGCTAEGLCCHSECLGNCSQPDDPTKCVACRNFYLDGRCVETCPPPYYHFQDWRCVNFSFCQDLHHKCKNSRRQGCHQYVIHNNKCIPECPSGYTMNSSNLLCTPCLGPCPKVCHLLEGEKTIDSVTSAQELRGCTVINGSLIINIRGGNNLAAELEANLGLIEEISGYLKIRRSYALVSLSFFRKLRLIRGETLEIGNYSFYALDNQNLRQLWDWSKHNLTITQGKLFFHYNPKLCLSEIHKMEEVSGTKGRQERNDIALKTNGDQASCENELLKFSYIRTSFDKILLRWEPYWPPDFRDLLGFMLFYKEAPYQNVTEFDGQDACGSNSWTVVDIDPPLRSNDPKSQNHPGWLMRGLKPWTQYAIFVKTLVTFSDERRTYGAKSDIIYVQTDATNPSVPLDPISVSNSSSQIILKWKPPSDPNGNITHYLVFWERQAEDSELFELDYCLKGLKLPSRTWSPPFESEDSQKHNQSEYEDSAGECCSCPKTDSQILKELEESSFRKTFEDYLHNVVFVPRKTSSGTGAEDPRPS
Insulin receptor (Homo sapiens), sequence (P06213 763-1382 limits assumed): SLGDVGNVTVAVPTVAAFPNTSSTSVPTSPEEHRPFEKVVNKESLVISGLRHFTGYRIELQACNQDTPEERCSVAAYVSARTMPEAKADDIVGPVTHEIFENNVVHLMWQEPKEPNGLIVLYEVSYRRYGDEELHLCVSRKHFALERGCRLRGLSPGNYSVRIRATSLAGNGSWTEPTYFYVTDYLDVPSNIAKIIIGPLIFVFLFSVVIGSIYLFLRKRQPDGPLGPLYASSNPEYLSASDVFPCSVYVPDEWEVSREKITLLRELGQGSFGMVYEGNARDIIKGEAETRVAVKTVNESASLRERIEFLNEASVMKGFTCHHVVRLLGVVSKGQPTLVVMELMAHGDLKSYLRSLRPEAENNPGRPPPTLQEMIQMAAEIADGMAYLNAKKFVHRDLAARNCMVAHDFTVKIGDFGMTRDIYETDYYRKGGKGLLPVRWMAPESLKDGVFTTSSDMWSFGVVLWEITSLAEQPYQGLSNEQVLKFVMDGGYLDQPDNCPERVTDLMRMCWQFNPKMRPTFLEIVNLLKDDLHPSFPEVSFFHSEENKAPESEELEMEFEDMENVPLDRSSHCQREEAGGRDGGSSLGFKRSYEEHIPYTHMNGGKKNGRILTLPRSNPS

[10] = molecular target: Serine/threonine-protein kinase PAK 6 (Homo sapiens) (UniProt Q9NQU5); experiment: Inhibition of human PAK6 using RRRLSFAEPG as substrate at 1 uM in presence of 32P-ATP by Hotspot assay relative to control; values are per cent of control
Serine/threonine-protein kinase PAK 6 (Homo sapiens), sequence (Q9NQU5 whole entry, looked up): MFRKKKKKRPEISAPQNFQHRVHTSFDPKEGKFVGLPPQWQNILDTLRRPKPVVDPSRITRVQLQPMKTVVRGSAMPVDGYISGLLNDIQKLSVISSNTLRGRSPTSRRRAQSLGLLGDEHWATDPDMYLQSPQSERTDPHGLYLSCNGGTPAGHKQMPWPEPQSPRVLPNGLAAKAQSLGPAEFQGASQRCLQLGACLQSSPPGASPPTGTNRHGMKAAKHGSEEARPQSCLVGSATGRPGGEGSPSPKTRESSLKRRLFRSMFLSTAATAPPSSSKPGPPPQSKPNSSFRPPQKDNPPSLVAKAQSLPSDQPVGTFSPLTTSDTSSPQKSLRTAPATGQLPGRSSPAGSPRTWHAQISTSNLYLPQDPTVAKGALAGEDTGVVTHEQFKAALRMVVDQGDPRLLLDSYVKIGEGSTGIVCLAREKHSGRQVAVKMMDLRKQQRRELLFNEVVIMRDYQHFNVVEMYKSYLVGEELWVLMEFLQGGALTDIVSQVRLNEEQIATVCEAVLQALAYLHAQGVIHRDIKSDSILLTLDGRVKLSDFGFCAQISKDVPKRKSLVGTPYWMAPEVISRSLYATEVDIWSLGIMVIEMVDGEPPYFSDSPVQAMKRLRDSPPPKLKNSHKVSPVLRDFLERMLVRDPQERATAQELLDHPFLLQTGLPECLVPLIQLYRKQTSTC

Compound | residual activity [1] [%] | residual activity [2] [%] | residual activity [3] [%] | residual activity [4] [%] | residual activity [5] [%] | residual activity [6] [%] | residual activity [7] [%] | residual activity [8] [%] | residual activity [9] [%] | residual activity [10] [%]
Cc1cc(-c2cnc(N)c3c(-c4ccc5scnc5c4)csc23)n(C)n1 | 98.6 | 78.2 | 99 | 84.6 | 101 | 96.2 | 91.1 | 103 | 101 | 106
CC(C)S(=O)(=O)c1ccc2nccc(Nc3ccc4scnc4c3)c2c1 | 95.4 | 70.9 | 95.9 | 92.2 | 96.3 | 96.6 | 69.9 | 83.1 | 90.4 | 98.5
CNC(=O)c1ccc2c(c1)ncn2-c1ccc(CC(=O)OC(C)(C)C)cc1 | 103 | 96.8 | 101 | 93.8 | 96.4 | 91.3 | 83.5 | 78.8 | 90 | 89.9
